Source: ChEMBL document CHEMBL3046432, “Synthesis of new series of pyrimido[4,5-b][1,4] benzothiazines as 15-lipoxygenase inhibitors and study of their inhibitory mechanism” (Med Chem Res, 2013)
pIC50, pKi: −log10 of the molar value.

Columns and labels:
[1] = target: T1, Seed linoleate 13S-lipoxygenase-1 (Glycine max, UniProt P08170); experiment: Inhibition of Glycine max (soybean) 15-lipoxygenase activity using linoleic acid as substrate by MBTH-DMAB method
T1 sequence (P08170 whole entry): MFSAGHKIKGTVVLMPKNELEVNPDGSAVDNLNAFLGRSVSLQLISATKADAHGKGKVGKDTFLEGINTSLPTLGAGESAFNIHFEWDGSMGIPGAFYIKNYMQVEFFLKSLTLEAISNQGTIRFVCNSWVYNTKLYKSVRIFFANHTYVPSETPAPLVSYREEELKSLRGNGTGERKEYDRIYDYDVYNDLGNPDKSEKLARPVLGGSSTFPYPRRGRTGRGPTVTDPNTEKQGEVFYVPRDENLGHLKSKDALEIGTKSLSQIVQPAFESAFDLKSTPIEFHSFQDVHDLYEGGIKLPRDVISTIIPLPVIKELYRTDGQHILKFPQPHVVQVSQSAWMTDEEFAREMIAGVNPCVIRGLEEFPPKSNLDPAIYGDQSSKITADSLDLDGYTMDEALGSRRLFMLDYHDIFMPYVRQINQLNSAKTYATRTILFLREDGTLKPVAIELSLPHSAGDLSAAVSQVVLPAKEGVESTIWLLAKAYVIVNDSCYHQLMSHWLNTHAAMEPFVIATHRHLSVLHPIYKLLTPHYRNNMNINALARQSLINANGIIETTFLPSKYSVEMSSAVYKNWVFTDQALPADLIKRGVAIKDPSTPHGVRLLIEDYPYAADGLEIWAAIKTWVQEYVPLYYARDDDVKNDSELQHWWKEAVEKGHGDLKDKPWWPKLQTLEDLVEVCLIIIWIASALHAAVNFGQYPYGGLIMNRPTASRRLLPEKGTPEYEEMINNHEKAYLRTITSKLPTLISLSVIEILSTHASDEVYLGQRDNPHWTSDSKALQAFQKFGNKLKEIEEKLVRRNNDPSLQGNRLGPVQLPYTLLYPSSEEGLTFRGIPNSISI

[2] = system: Radical scavenging activity; experiment: Antioxidant activity assessed as inhibition of DPPH radical […]; type: functional
[3] = target: T1, Seed linoleate 13S-lipoxygenase-1; experiment: Inhibition of Glycine max (soybean) 15-lipoxygenase activity assessed as decrease in peroxide formation using linoleic acid as substrate preincubated with enzyme for 5 min prior to substrate addition measured after 7 min by MBTH-DMAB method

| SMILES | pIC50 [1] | pIC50 [2] | pKi [3] |
| --- | --- | --- | --- |
| CCCc1nc(N2CCCC2)nc2c1Nc1ccccc1S2 | 3.21 | 3.51 | 5.73 |
| CCCc1nc(N2CCCCC2)nc2c1Nc1ccccc1S2 | 3.92 | 3.21 | 6.18 |
| CCCc1nc(N2CCC(C)CC2)nc2c1Nc1ccccc1S2 | 4.06 | 3.22 | 6.31 |
| CCCc1nc(N2CCOCC2)nc2c1Nc1ccccc1S2 | 3.14 | 3.17 | 5.70 |
| CCCc1nc(N2CCN(c3ccccc3)CC2)nc2c1Nc1ccccc1S2 | 3.39 | 3.45 | 5.93 |
| CCCc1nc(N2CCN(C)CC2)nc2c1Nc1ccccc1S2 | 5.05 | 4.76 | 6.72 |
| Cc1nc(N2CCN(C)CC2)nc2c1Nc1ccccc1S2 | 4.71 | 4.16 | 6.70 |
